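Each compound was tested at five concentrations against cells in 96-well plates for 48 hours. GI50 is the concentration that inhibits growth by half. TGI is the concentration that stops growth completely.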

Test systems include SF-539 CNS; RXF 393 renal; T-47D breast; 786-0 renal; HOP-62 NSCLC; OVCAR-4 ovarian; SK-OV-3 ovarian; HS 578T breast; HOP-92 NSCLC; NCI-H226 lung.
Holding throughout (test): NCI-60 cell line screen, 48 h

Turning to `COc1nc(C#CC2(O)CCCCC2)nc(OC)n1`, the TGI with SF-539 CNS was 23.3 µM; in the test on RXF 393 renal, 27 µM; in the test on T-47D breast, > 100 µM; with 786-0 renal, > 100 µM; in the test with HOP-62 NSCLC, 91 µM; in the test on OVCAR-4 ovarian it was 4.44 µM. For the same compound, the TGI with SK-OV-3 ovarian is > 100 µM; in the test on HS 578T breast, 44.8 µM.

Turning to `O=C(OCN1C(=O)C2C3C=CC(C2C1=O)C1C2C(=O)N(COC(=O)C4CCCN4)C(=O)C2C31)C1CCCN1` (stereo not drawn), the TGI is > 100 µM in the test with SF-539 CNS; > 100 µM in the test with RXF 393 renal; > 60.6 µM in the test with 786-0 renal; > 100 µM in the test on HOP-92 NSCLC; > 100 µM in the test with HOP-62 NSCLC; > 100 µM in the test on NCI-H226 lung. Also, the TGI in the test with OVCAR-4 ovarian and with SK-OV-3 ovarian was > 100 µM throughout.

As to `O=C(O)C1C2CCC(O2)C1C(=O)Nc1cccc2cccnc12` (stereo not drawn), the TGI with RXF 393 renal, with T-47D breast, in the test on 786-0 renal, with HOP-62 NSCLC, with OVCAR-4 ovarian and with SK-OV-3 ovarian was > 100 µM each time. The TGI with HS 578T breast is > 100 µM.

For `COc1ccc2c(c1)[nH]c1c(/C=C/c3ccccc3)nccc12`, the TGI with SF-539 CNS was 32.3 µM; in the test with RXF 393 renal, 38 µM; in the test on T-47D breast, > 100 µM; in the test on 786-0 renal, 42.2 µM; in the test with HOP-92 NSCLC it was 44.4 µM; in the test with HOP-62 NSCLC it was 41.4 µM. The TGI in the test with NCI-H226 lung was 53.1 µM; with OVCAR-4 ovarian it was > 100 µM; in the test with SK-OV-3 ovarian it was 34.9 µM; in the test with HS 578T breast, 45.3 µM.

Turning to `CN(C)CC(CC1=C(CC(CN(C)C)N(C)C)CCC1)N(C)C` (stereo not drawn), the TGI with SF-539 CNS, in the test with RXF 393 renal, in the test with HOP-92 NSCLC, with HOP-62 NSCLC, in the test with NCI-H226 lung and in the test on OVCAR-4 ovarian was > 100 µM each time. Also, the TGI in the test with SK-OV-3 ovarian was > 100 µM.

With `CC1=CC(=O)c2ccccc2C1=O`, the TGI stood at 11.9 µM with SF-539 CNS; 26.9 µM in the test on RXF 393 renal; 5.33 µM with T-47D breast; 28.5 µM in the test with 786-0 renal; 2.94 µM in the test on HOP-92 NSCLC; 29.8 µM with HOP-62 NSCLC. For the same compound, the TGI was found to be 31 µM in the test with NCI-H226 lung, 9.54 µM with OVCAR-4 ovarian, 25.7 µM in the test on SK-OV-3 ovarian and 41.4 µM in the test on HS 578T breast.

Take `Nc1nc(SCCc2ccccc2)nc2nc3c(c(-c4ccccc4)c12)CCCC3`: the TGI was > 100 µM with SF-539 CNS; 81.1 µM in the test with RXF 393 renal; > 100 µM in the test on T-47D breast; > 100 µM with HOP-62 NSCLC; > 100 µM with OVCAR-4 ovarian; > 100 µM with SK-OV-3 ovarian. This compound also showed a TGI in the test with HS 578T breast of 64.7 µM.

Take `COc1cccc2c1Cc1cc(-c3ccccc3)[n+](C)n1-2`: the TGI in the test on SF-539 CNS was 44.1 µM; in the test on RXF 393 renal, 73.6 µM; with T-47D breast it was 17.7 µM; in the test with 786-0 renal, 84.2 µM; with HOP-92 NSCLC, 66.4 µM; in the test with HOP-62 NSCLC it was > 100 µM. For the same compound, the TGI is 47.7 µM with NCI-H226 lung, 14.5 µM in the test with OVCAR-4 ovarian, > 100 µM with SK-OV-3 ovarian and > 100 µM with HS 578T breast.

As to `C[C@H](CCC(=O)O)[C@H]1CC[C@@]2(C)[C@@H]3C(=O)C[C@H]4C(C)(C)[C@@H](O)CC[C@]4(C)[C@H]3C(=O)C[C@]12C`, the TGI in the test with SF-539 CNS, in the test on RXF 393 renal, in the test on T-47D breast, with 786-0 renal, in the test with HOP-92 NSCLC and in the test with HOP-62 NSCLC was > 100 µM throughout. The TGI in the test with NCI-H226 lung, with OVCAR-4 ovarian, in the test with SK-OV-3 ovarian and with HS 578T breast was > 100 µM throughout.

With `CCn1c(-c2ccc(N=NNc3ccc(-c4n[nH]c(=S)n4CC)cc3)cc2)n[nH]c1=S`, the TGI in the test on RXF 393 renal turned out to be 11.8 µM; with T-47D breast, 4.35 µM; in the test with 786-0 renal, 37.2 µM; in the test on HOP-92 NSCLC, 7.71 µM; with HOP-62 NSCLC, 8.03 µM; with NCI-H226 lung, 5.86 µM. The TGI in the test with OVCAR-4 ovarian was 5.41 µM; with SK-OV-3 ovarian, 19.5 µM; in the test on HS 578T breast it was > 100 µM.

For `O=c1cccccc1[O-].O=c1cccccc1[O-].[O]=[U+2]=[O]`, the GI50 in the test with SF-539 CNS was 20.6 µM. Further, the TGI stood at 43.1 µM with SF-539 CNS; 41.2 µM with RXF 393 renal; 70.6 µM in the test on HOP-92 NSCLC; 57 µM with OVCAR-4 ovarian; 74.5 µM in the test on SK-OV-3 ovarian.

Regarding `Nc1ccccc1S(=O)(=O)c1ccccc1`, the TGI in the test on SF-539 CNS, with RXF 393 renal, with HOP-92 NSCLC, with HOP-62 NSCLC, in the test with NCI-H226 lung and with OVCAR-4 ovarian was > 100 µM in each case. The TGI with SK-OV-3 ovarian was > 100 µM.

Take `O=C(/C=C/c1ccc(O)c(-c2cc(C(=O)/C=C/c3ccc(O)cc3)c(O)cc2O)c1)c1ccc(O)cc1O`: the TGI with SF-539 CNS is 26.3 µM; in the test on RXF 393 renal it was > 50 µM; in the test with T-47D breast it was > 50 µM; in the test with 786-0 renal it was > 50 µM; in the test with HOP-92 NSCLC, > 50 µM; in the test with HOP-62 NSCLC, > 50 µM. The figures for the TGI in the test on OVCAR-4 ovarian, with SK-OV-3 ovarian and in the test on HS 578T breast were > 50 µM, 48.3 µM and > 50 µM, respectively.

(Values after PubChem BioAssay (NCI).)
